Values joined by “and” are separate entries in the source; they are usually repeats but may differ in a detail not shown here. Identical values can stand only once. Like-named read-outs stand apart in the source and are kept apart here. Marks after values point to notes of the source that are not given here.
Experiments:
[1] = General behavioral evaluation of the nervous system (placing/stepping, righting, pinna, corneal reflexes; signs of CNS depression)
[2] = Morphine-induced tolerance/hyperalgesia in healthy rats (von Frey filaments, electronic von Frey, hot plate, formalin test); assay type: in vivo, rat
Text: (NIH Publication No. 85-23, revised 1996).

[3] = 22 rpm, mean ± SEM, n = 6
Experimental: Young rats (8-10 weeks) Sprague Dawley (SD) (males, 168-240 g) from the National Center for the Production of Laboratory Animals (CENPALAB, Havana, Cuba) were used, adapted for seven days to the conditions of the laboratory. The animals were kept under an alternating cycle of light and dark every 12 h, the temperature was controlled between 25-27° C. and an EMO 1001 diet established for the laboratory animals. After the adaptation period, the animals were distributed in the different groups according to their body weights. Water and food were kept available ad libitum. […] To induce tolerance/hyperalgesia to morphine, it was administered to the animals subcutaneously (10 mg/kg, 1 mUkg, s.c.) twice a day every 12 h for 10 days or saline solution (Cao, J L et al. 2005 Pharmacol Biochem and Behay. 80: 493-503), after oral administration of JM-20 or its vehicle, carboxymethylcellulose (0.5% CMC in distilled water, 10mUkg, p.o.) 1h before. Correspondingly, the following groups were constituted: CMC-SS (n=6), CMC-MOR (n=6), JM-20-SS (n=6), JM-20 (5mg/kg)-MOR (n=6) and JM-20 (20mg/kg)-MOR (n=6).

[4] = Intensity of mechanical hypernociception (electronic von Frey) in CCI or sham rats after chronic morphine or saline
[5] = Histopathological study of sciatic nerve (Wallerian degeneration); settings: CCI or sham rats; hematoxylin and eosin, light microscopy
[6] = Mechanical hypernociception dose-response in CCI rats (electronic von Frey, % MPE); assay type: in vivo, rat; settings: for ED50: Rattus norvegicus, 168 h, single dose, doses given in mg/kg
[7] = Mechanical allodynia dose-response in CCI rats (von Frey filaments, % MPE); assay type: in vivo, rat; settings: 7 days post-CCI
[8] = Thermal hypernociception in CCI rats (Hargreaves test, % MPE); assay type: in vivo, rat; settings: for % MPE, thermal hypernociception: first administration
[9] = Spontaneous withdrawal symptoms to morphine; assay type: in vivo, rat; settings: JM-20 co-treatment; day 1 of withdrawal after chronic morphine
Text: In this experiment we studied some somatic behaviors and symptoms in the rat associated with spontaneous withdrawal to morphine (jumping or escape attempts, tremors, mastication, piloerection, head shaking).

[10] = day 1, 45 min after first morphine or saline dose, 105 min after JM-20 (20 mg/kg, p.o.) or CMC
[11] = day 5, 45 min after morphine or saline, 105 min after JM-20 (20 mg/kg, p.o.) or CMC
[12] = day 1, 45 min after first dose of morphine or saline, 105 min after JM-20 (20 mg/kg, p.o.) or CMC
[13] = day 5, 45 min after morphine or saline dose, 105 min after JM-20 (20 mg/kg, p.o.) or CMC

Question: What does the source list for CCOC(=O)C1=C(C)NC2=C(C=Nc3ccccc3N2)C1c1ccccc1[N+](=O)[O-] (centres unmarked) [JM-20, 3-ethoxycarbonyl-2-methyl-4-(2-nitrophenyl)-4,11-dihydro-1H-pyrido [2,3-b] [1,5] benzodiazepine]?
Answer: Corneal reflex, % of animals showing the reflex [1, 10]: 100%; Pinna reflex, % of animals showing the reflex [1, 10]: 100%; Placing/stepping reflex, % of animals showing the reflex [1, 10]: 100%; Righting reflex, % of animals showing the reflex [1, 10]: 100%; Corneal reflex, % of animals showing the reflex [1, 11]: 100%; Pinna reflex, % of animals showing the reflex [1, 11]: 100%; Placing/stepping reflex, % of animals showing the reflex [1, 11]: 100%; Righting reflex, % of animals showing the reflex [1, 11]: 100%; Corneal reflex, % of animals showing the reflex ([1]; day 11, without medications): 100%; Pinna reflex, % of animals showing the reflex ([1]; day 11, without medications): 100%; Placing/stepping reflex, % of animals showing the reflex ([1]; day 11, without medications): 100%; Righting reflex, % of animals showing the reflex ([1]; day 11, without medications): 100%; Response to mechanical and thermal stimuli versus control group (CMC-SS) ([2]; JM-20-SS group, non-injured rats): did not show differences; Thermal hyperalgesia (PWL, hot plate test) ([2]; healthy rats, chronic morphine + JM-20 co-treatment, at 11 days): prevented thermal hyperalgesia; Percentage response to 4 g VFF and 15 g VFF and withdrawal threshold (Δ) ([2]; healthy rats, morphine 10 mg/kg s.c. twice a day for 10 days, JM-20 p.o. co-treatment 1 h before): significantly reduced; Nociceptive scores in the 5% formalin test ([2]; tolerant/hyperalgesic rats, day 11, test dose of morphine 5 mg/kg i.p., both phases): significantly improved nociceptive scores; Rota-rod motor performance (Latency sec) [3, 12]: 59 ± 0.5^b sec; Rota-rod motor performance (Latency sec) [3, 13]: 59 ± 0.5 s; Rota-rod motor performance (Latency sec) ([3]; day 11, without medications): 60 s; Intensity of mechanical hypernociception, difference (Δ) of the withdrawal threshold ([4]; CCI rats, SS s/c + JM-20 10 mg/kg p.o. for 5 days, day 11 post-surgery, 6 hours after last JM-20, 10 mg/kg): 10.68±5.89 grams and 10.68 ± 5.89*≠ grams; Intensity of mechanical hypernociception, difference (Δ) of the withdrawal threshold ([4]; CCI rats, SS s/c + JM-20 10 mg/kg p.o. for 5 days, day 23 post-surgery, 12 days after discontinuation of JM-20, 10 mg/kg): 5.93±2.65 grams and 5.93 ± 2.65*≠ grams; Intensity of mechanical hypernociception, difference (Δ) of the withdrawal threshold ([4]; CCI rats, saline (SS) s/c + JM-20 10 mg/kg p.o. group, day 7 post-surgery, prior to start of treatments): 41.55 ± 1.50 grams; Qualitative histopathological changes of the sciatic nerve (Wallerian degeneration, cellularity) [5]: still exerts its neuroprotective effect; % MPE, intensity of mechanical hypernociception ([6]; JM-20 2.5 mg/kg p.o., 60 minutes after first dose, 7 days post-CCI): 32.26±4.2%; % MPE, intensity of mechanical hypernociception ([6]; JM-20 2.5 mg/kg p.o., 14 days post-CCI after repeated doses): 40.86±7.1%; % MPE, intensity of mechanical hypernociception ([6]; JM-20 5 mg/kg p.o., 60 minutes after first dose, 7 days post-CCI): 48.02±6.3%; % MPE, intensity of mechanical hypernociception ([6]; JM-20 5 mg/kg p.o., 14 days post-CCI after repeated doses): 38.13±9.4%; % MPE, intensity of mechanical hypernociception ([6]; JM-20 10 mg/kg p.o., 60 minutes after first dose, 7 days post-CCI): 39.20±7.9%; % MPE, intensity of mechanical hypernociception ([6]; JM-20 10 mg/kg p.o., 14 days post-CCI after repeated doses): 46.18±5.7%; % MPE, intensity of mechanical hypernociception ([6]; JM-20 20 mg/kg p.o., 60 minutes after first dose, 7 days post-CCI): 58.15±7.3%; % MPE, intensity of mechanical hypernociception ([6]; JM-20 20 mg/kg p.o., 14 days post-CCI after repeated doses): 55.28±8.3%; Neuroadaptations (tolerance/hyperalgesia) after repeated administration ([6]; JM-20 p.o. for 8 days, mechanical hypernociception at days 14, 15-16 post-CCI): neuroadaptations (tolerance/hyperalgesia) were not observed; ED50 ([6]; po, JM-20 p.o., 7 days post-CCI): 12.4 ± 6.4 mg/kg; % MPE, mechanical allodynia ([7]; JM-20 2.5 mg/kg p.o., 1 h after first administration): 24.97±8.5%; % MPE, mechanical allodynia ([7]; JM-20 5 mg/kg p.o., 1 h after first administration): 50.21±7.6%; % MPE, mechanical allodynia ([7]; JM-20 10 mg/kg p.o., 1 h after first administration): 48.68±7.6%; % MPE, mechanical allodynia ([7]; JM-20 20 mg/kg p.o., 1 h after first administration): 64.25±9.7%; ED50 ([7]; Rattus norvegicus, po, 168 h, JM-20 p.o., single dose, doses given in mg/kg): 8.44 ± 1.9 mg/kg; Effect on withdrawal thresholds in the Hargreaves test ([8]; JM-20 2.5-20 mg/kg p.o., after first administration or repeated doses at 14 days post-CCI): did not increase withdrawal thresholds significantly; Spontaneous somatic withdrawal symptoms after withdrawal of morphine [9]: significantly reduced

Question: For NCC1(CC(=O)O)CCCCC1 [gabapentin], which “Qualitative histopathological changes of the sciatic nerve (Wallerian degeneration, cellularity)” value [5] is on record?
Answer: Its value is “decrease in these alterations”.

Question: With CN1CC[C@]23c4c5ccc(O)c4O[C@H]2[C@@H](O)C=C[C@H]3[C@H]1C5 [morphine, reference compound] as the molecule, how does the “Corneal reflex, % of animals showing the reflex” value (“Corneal reflex, %” for short) [1, 10] read?
Answer: The value was 100%.

Question: What about the “Pinna reflex, % of animals showing the reflex” value (from here on “Pinna reflex, %”) [1, 10] of the same molecule?
Answer: Its value is 100%.

Question: And the “Placing/stepping reflex, % of animals showing the reflex” value (“Placing/stepping reflex, %” below) [1, 10]?
Answer: Its value is 100%.

Question: What about the “Righting reflex, % of animals showing the reflex” value (from here on “Righting reflex, %”) [1, 10] of the same molecule?
Answer: The value was 100%.

Question: What about the “Corneal reflex, %” value [1, 11] of the same molecule?
Answer: Its value is 100%.

Question: And the “Pinna reflex, %” value [1, 11]?
Answer: Its value is 100%.

Question: What about the “Placing/stepping reflex, %” value [1, 11] of the same molecule?
Answer: The value was 100%.

Question: And the “Righting reflex, %” value [1, 11]?
Answer: The value was 100%.

Question: And the “Corneal reflex, %” value ([1]; day 11, without medications)?
Answer: The value was 100%.

Question: What about the “Pinna reflex, %” value ([1]; day 11, without medications) of the same molecule?
Answer: Its value is 100%.

Question: What about the “Placing/stepping reflex, %” value ([1]; day 11, without medications) of the same molecule?
Answer: Its value is 100%.

Question: And the “Righting reflex, %” value ([1]; day 11, without medications)?
Answer: Its value is 100%.

Question: And the “Rota-rod motor performance (Latency sec)” value [3, 12]?
Answer: Its value is 16 ± 1.9^a sec.

Question: What about the “Rota-rod motor performance (Latency sec)” value [3, 13] of the same molecule?
Answer: The value was 57 ± 1.8 s.

Question: What about the “Rota-rod motor performance (Latency sec)” value ([3]; day 11, without medications) of the same molecule?
Answer: The value was 60 s.

Question: And the “Intensity of mechanical hypernociception, difference (Δ) of the withdrawal threshold” value ([4]; CCI rats, morphine group (vehicle p.o.), day 7 post-surgery, prior to start of treatments)?
Answer: Its value is 41.22±1.58 grams.

Question: And the “Intensity of mechanical hypernociception, difference (Δ) of the withdrawal threshold” value ([4]; CCI rats, morphine group (vehicle p.o.), day 7 post-surgery, prior to start of treatments, listed as MOR)?
Answer: The value was 41.22 ± 1.58 grams.

Question: And the “Intensity of mechanical hypernociception, difference (Δ) of the withdrawal threshold” value ([4]; Sham CCI rats, morphine group, day 7 post-surgery, prior to start of treatments)?
Answer: The value was 2.06 ± 2.96≠ grams.

Question: And the “Qualitative histopathological changes of the sciatic nerve (Wallerian degeneration, cellularity)” value [5]?
Answer: Its value is “minimal increase in cellularity”.

Question: And the ED50 ([6]; sc, morphine s.c., 7 days post-CCI)?
Answer: The ED50 was 5.63 ± 0.8 mg/kg.

Question: What about the “% MPE, intensity of mechanical hypernociception” value (shortened to “% MPE, intensity”) ([6]; morphine 3 mg/kg s.c., 14 days post-CCI after 8 repeated doses) of the same molecule?
Answer: Its value is 1.36±0.5%.

Question: And the “% MPE, intensity” value ([6]; morphine 3 mg/kg s.c., first administration, 7 days post-CCI)?
Answer: The value was 17.67±2.8%.

Question: And the “% MPE, intensity” value ([6]; morphine 5 mg/kg s.c., 14 days post-CCI after 8 repeated doses)?
Answer: Its value is 6.10±1.0%.

Question: What about the “% MPE, intensity” value ([6]; morphine 5 mg/kg s.c., first administration, 7 days post-CCI) of the same molecule?
Answer: Its value is 48.05±2.9%.

Question: What about the “% MPE, intensity” value ([6]; morphine 10 mg/kg s.c., 14 days post-CCI after 8 repeated doses) of the same molecule?
Answer: The value was 14.18±4.7%.

Question: What about the “% MPE, intensity” value ([6]; morphine 10 mg/kg s.c., first administration, 7 days post-CCI) of the same molecule?
Answer: The value was 72.22±4.6%.

Question: And the “% MPE, mechanical allodynia” value ([7]; morphine 10 mg/kg s.c., first administration)?
Answer: Its value is 100%.

Question: And the ED50 ([8]; Rattus norvegicus, sc, 168 h, morphine s.c., single dose, 7 days post-CCI, doses given in mg/kg)?
Answer: The ED50 was 3.17 ± 0.4 mg/kg.

Question: And the “% MPE, thermal hypernociception” value ([8]; morphine 3 mg/kg s.c., 7 days post-CCI)?
Answer: The value was 30.0±13%.

Question: What about the “% MPE, thermal hypernociception” value ([8]; morphine 10 mg/kg s.c., 7 days post-CCI) of the same molecule?
Answer: Its value is 95.69±3.4%.

— US20230054379A1, “COMPOSITION AND METHOD OF TREATMENT TO SIMU[…] THE […] EFFICACY OF OPIOIDS AND REDUCE THEIR ADDICTIVE POWER” (Centro de Investigacion Y Desarrollo de Medicamentos (CIDEM), priority 2020, published 2023)
